Experimental data as given in the NIST ThermoML archive (doi:10.1016/j.jct.2017.08.004).

Assay: molar heat capacity at constant pressure
Conditions: 101.33 kPa

OC[C@@H](O)[C@H](O)[C@@H](O)CO [xylitol]
molar heat capacity at constant pressure [J/K/mol]
Conditions	Small sample (50 mg) DSC	relaxation calorimetry
261.15 K, Crystal	182.91	–
262.13 K, Crystal	–	182.23
262.15 K, Crystal	183.56	–
263.15 K, Crystal	184.15	–
264.15 K, Crystal	184.93	–
265.15 K, Crystal	185.58	–
266.15 K, Crystal	186.01	–
267.15 K, Crystal	186.68	–
268.15 K, Crystal	187.58	–
269.15 K, Crystal	188.3	–
270 K, Crystal	–	187.42
270.15 K, Crystal	188.75	–
271.15 K, Crystal	189.44	–
272.13 K, Crystal	–	189.16
272.15 K, Crystal	190.09	–
273.15 K, Crystal	190.92	189.56
274.15 K, Crystal	191.54	–
275.15 K, Crystal	192.36	–
276.15 K, Crystal	193.1	–
277.15 K, Crystal	193.74	–
278.15 K, Crystal	194.49	–
279.15 K, Crystal	195.25	–
280 K, Crystal	–	194.26
280.15 K, Crystal	195.98	–
281.15 K, Crystal	196.83	–
282.15 K, Crystal	197.52	–
282.21 K, Crystal	–	195.78
283.15 K, Crystal	198.24	–
284.15 K, Crystal	198.78	–
285.15 K, Crystal	199.46	–
286.15 K, Crystal	200.2	–
287.15 K, Crystal	200.97	–
288.15 K, Crystal	201.79	–
289.15 K, Crystal	202.38	–
290 K, Crystal	–	201.22
290.15 K, Crystal	203.24	–
291.15 K, Crystal	204	–
292.15 K, Crystal	204.53	–
292.34 K, Crystal	–	202.53
293.15 K, Crystal	205.39	–
294.15 K, Crystal	206.39	–
295.15 K, Crystal	207.02	–
296.15 K, Crystal	207.76	–
297.15 K, Crystal	208.58	–
298.15 K, Crystal	209.23	207
299.15 K, Crystal	209.95	–
300 K, Crystal	–	208.32
300.15 K, Crystal	210.89	–
301.15 K, Crystal	211.84	–
302.15 K, Crystal	212.55	–
302.38 K, Crystal	–	210.13
303.15 K, Crystal	213.48	–
304.15 K, Crystal	214.26	–
305 K, Crystal	215.28	–
305.15 K, Crystal	215.11	–
306.15 K, Crystal	216.14	–
307.15 K, Crystal	217.06	–
308.15 K, Crystal	217.82	–
309.15 K, Crystal	218.75	–
310 K, Crystal	219.82	–
310.15 K, Crystal	219.97	–
311.15 K, Crystal	220.76	–
312.15 K, Crystal	221.67	–
313.15 K, Crystal	222.64	–
314.15 K, Crystal	223.41	–
315 K, Crystal	224.06	–
315.15 K, Crystal	224.2	–
316.15 K, Crystal	225.05	–
317.15 K, Crystal	225.99	–
318.15 K, Crystal	226.72	–
319.15 K, Crystal	227.57	–
320 K, Crystal	228.13	–
320.15 K, Crystal	228.44	–
321.15 K, Crystal	229.1	–
322.15 K, Crystal	229.81	–
323.15 K, Crystal	230.76	–
324.15 K, Crystal	231.54	–
325 K, Crystal	232.15	–
325.15 K, Crystal	232.32	–
326.15 K, Crystal	233.13	–
327.15 K, Crystal	234.07	–
328.15 K, Crystal	234.91	–
329.15 K, Crystal	235.68	–
330 K, Crystal	236.23	–
330.15 K, Crystal	236.5	–
331.15 K, Crystal	237.35	–
332.15 K, Crystal	238.2	–
333.15 K, Crystal	238.98	–
334.15 K, Crystal	239.74	–
335 K, Crystal	240.51	–
335.15 K, Crystal	240.54	–
336.15 K, Crystal	241.37	–
337.15 K, Crystal	242.09	–
338.15 K, Crystal	242.99	–
339.15 K, Crystal	244.05	–
340 K, Crystal	245.1	–
340.15 K, Crystal	244.86	–
341.15 K, Crystal	245.84	–
342.15 K, Crystal	246.78	–
343.15 K, Crystal	247.9	–
345 K, Crystal	250.14	–
384.05 K, Liquid	437.55	–
384.15 K, Liquid	437.54	–
385 K, Liquid	437.31	–
385.15 K, Liquid	437.23	–
386.15 K, Liquid	436.89	–
387.15 K, Liquid	436.55	–
388.15 K, Liquid	436.95	–
389.15 K, Liquid	436.95	–
390 K, Liquid	437.71	–
390.15 K, Liquid	437.09	–
391.15 K, Liquid	437.18	–
392.15 K, Liquid	437.31	–
393.15 K, Liquid	437.7	–
394.15 K, Liquid	438.11	–
395 K, Liquid	438.53	–
395.15 K, Liquid	438.36	–
396.15 K, Liquid	438.65	–
397.15 K, Liquid	439	–
398.15 K, Liquid	439.02	–
399.15 K, Liquid	439.36	–
400 K, Liquid	439.66	–
400.15 K, Liquid	439.81	–
401.15 K, Liquid	440.13	–
402.15 K, Liquid	440.23	–
403.15 K, Liquid	440.54	–
404.15 K, Liquid	441	–
405 K, Liquid	440.98	–
405.15 K, Liquid	441.38	–
406.15 K, Liquid	441.87	–
407.15 K, Liquid	442.08	–
408.15 K, Liquid	442.44	–
409.15 K, Liquid	442.7	–
410 K, Liquid	442.38	–
410.15 K, Liquid	442.88	–
411.15 K, Liquid	443.4	–
412.15 K, Liquid	443.35	–
413.15 K, Liquid	443.38	–
414.15 K, Liquid	443.78	–
415 K, Liquid	443.73	–
415.15 K, Liquid	443.82	–
416.15 K, Liquid	444.07	–
417.15 K, Liquid	444.35	–
418.15 K, Liquid	444.54	–
419.15 K, Liquid	444.75	–
420 K, Liquid	444.92	–
420.15 K, Liquid	444.83	–
421.15 K, Liquid	444.89	–
422.15 K, Liquid	445.1	–
423.15 K, Liquid	445.32	–
424.15 K, Liquid	445.31	–
425 K, Liquid	445.83	–
425.15 K, Liquid	445.36	–
426.15 K, Liquid	445.64	–
427.15 K, Liquid	445.75	–
428.15 K, Liquid	445.78	–
429.15 K, Liquid	445.83	–
430 K, Liquid	446.33	–
430.15 K, Liquid	445.91	–
431.15 K, Liquid	446.11	–
432.15 K, Liquid	446.26	–
433.15 K, Liquid	446.16	–
434.15 K, Liquid	446.18	–
435 K, Liquid	446.32	–
435.15 K, Liquid	446.7	–
436.15 K, Liquid	446.78	–
437.15 K, Liquid	446.54	–
438.15 K, Liquid	446.6	–
